Legend:
[1] = biological target: T1, Recombinant STAT6 protein (STAT6 (W123-T658)) (Homo sapiens, UniProt P42226); experiment: STAT6 Fluorescence Polarization (FP) Assay; format: binding; settings: STAT6 (W123-T658) 250 nM, probe 5-FAM-Ap[…]-NH2 2 nM, 45-minute incubation; read-out: STAT6 (FP assay IC50 class)
T1 construct: Recombinant STAT6 protein (STAT6 (W123-T658))
T1 sequence (P42226 123-658): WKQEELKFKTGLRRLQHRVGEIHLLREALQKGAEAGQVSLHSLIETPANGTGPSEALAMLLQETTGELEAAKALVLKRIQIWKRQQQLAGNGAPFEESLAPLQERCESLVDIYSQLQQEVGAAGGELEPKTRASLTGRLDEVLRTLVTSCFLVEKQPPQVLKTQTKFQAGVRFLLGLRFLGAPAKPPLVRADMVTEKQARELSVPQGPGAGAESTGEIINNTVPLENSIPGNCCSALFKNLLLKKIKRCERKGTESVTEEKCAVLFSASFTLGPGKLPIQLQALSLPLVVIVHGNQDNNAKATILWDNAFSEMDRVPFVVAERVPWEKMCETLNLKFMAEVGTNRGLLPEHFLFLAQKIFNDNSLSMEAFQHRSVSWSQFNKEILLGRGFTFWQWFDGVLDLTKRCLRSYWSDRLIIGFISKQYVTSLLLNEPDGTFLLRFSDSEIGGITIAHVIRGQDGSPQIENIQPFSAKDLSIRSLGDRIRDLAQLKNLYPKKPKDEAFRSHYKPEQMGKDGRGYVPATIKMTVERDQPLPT
In short: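 Fluorescence polarization (mP) read-out: 250 nM STAT6 (W123-T658) plus 2 nM 5-FAM phosphotyrosine peptide, 45 min, room temperature, 1% DMSO. IC50 by nonlinear fit of mP against log compound concentration.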

[2] = biological target: T2, Recombinant STAT3 protein (STAT3 (G127-I722)) (Homo sapiens, UniProt P40763); experiment: STAT3 Fluorescence Polarization (FP) Assay; format: binding; settings: STAT3 (G127-I722) 25 nM, probe 5-FAM-GpYLPQTV-NH2 2 nM, 45-minute incubation; read-out: STAT3 (FP assay IC50 class)
T2 construct: Recombinant STAT3 protein (STAT3 (G127-I722))
In short: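 Read-out is fluorescence polarization (mP) after 45 min at room temperature, with IC50 fitted by nonlinear regression against log compound concentration. Mixture: 25 nM STAT3 (G127-I722), 2 nM 5-FAM-GpYLPQTV-NH2 phosphopeptide, 10 mM HEPES pH 7.4 buffer, 1% DMSO.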

T2 sequence (P40763 127-722): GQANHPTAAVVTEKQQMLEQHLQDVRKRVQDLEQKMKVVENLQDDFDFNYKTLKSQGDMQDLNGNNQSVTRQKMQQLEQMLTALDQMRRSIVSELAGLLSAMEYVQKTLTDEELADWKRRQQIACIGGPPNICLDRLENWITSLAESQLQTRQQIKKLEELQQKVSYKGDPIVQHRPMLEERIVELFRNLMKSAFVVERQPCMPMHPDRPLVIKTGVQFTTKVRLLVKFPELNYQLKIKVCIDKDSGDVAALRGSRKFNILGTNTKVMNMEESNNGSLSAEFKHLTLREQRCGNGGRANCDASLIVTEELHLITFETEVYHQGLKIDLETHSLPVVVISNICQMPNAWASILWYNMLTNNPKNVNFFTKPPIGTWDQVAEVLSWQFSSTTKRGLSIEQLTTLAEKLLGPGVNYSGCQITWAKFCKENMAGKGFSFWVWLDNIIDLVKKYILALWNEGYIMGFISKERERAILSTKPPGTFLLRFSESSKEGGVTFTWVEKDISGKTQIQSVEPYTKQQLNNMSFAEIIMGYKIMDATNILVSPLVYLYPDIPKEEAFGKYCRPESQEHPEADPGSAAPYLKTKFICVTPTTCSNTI

SMILES | IC50 [1] | IC50 [2]
Cc1cccnc1N1C[C@H](NC(=O)[C@@H]2CC[C@@H]3CCCC[C@H](NC(=O)c4cc5cc(C(F)P(=O)(O)O)ccc5s4)C(=O)N32)[C@@H](F)C1 (stereo partly drawn) [Compound 555, (fluoro(2-(((3S,6S,10aS)-3-(((3S,4S)-4-fluoro-1-(3-methylpyridin-2-yl)pyrrolidin-3-yl)carbamoyl)-5-oxodecahydropyrrolo[1,2-a]azocin-6-yl)carbamoyl)benzo[b]thiophen-5-yl)methyl)phosphonic acid] | 3 to 30 µM | 0.1 to 1 µM
COc1cc(F)c(C2CN(C(=O)[C@@H]3CC[C@@H]4CCC[C@H](NC(=O)c5cc6cc(CP(=O)(O)O)ccc6s5)C(=O)N43)C2)cn1 [Compound 556, ((2-(((3S,6S,9aS)-3-(3-(4-fluoro-6-methoxypyridin-3-yl)azetidine-1-carbonyl)-5-oxooctahydro-1H-pyrrolo[1,2-a]azepin-6-yl)carbamoyl)benzo[b]thiophen-5-yl)methyl)phosphonic acid] | 3 to 30 µM | 1 to 10 µM
NC(=O)N1C[C@H](NC(=O)[C@@H]2CC[C@@H]3CCCC[C@H](NC(=O)c4cc5cc(C(F)P(=O)(O)O)ccc5s4)C(=O)N32)[C@@H](F)C1 (stereo partly drawn) [Compound 558, ((2-(((3S,6S,10aS)-3-(((3S,4S)-1-carbamoyl-4-fluoropyrrolidin-3-yl)carbamoyl)-5-oxodecahydropyrrolo[1,2-a]azocin-6-yl)carbamoyl)benzo[b]thiophen-5-yl)fluoromethyl)phosphonic acid] | 0.3 to 3 µM | < 0.1 µM
O=C(N[C@H]1CCCC[C@H]2CC[C@@H](C(=O)N[C@@H]3CCN(c4ccn[nH]4)C3)N2C1=O)c1cc2cc(C(F)P(=O)(O)O)ccc2s1 (stereo partly drawn) [Compound 559, ((2-(((3S,6S,10aS)-3-(((R)-1-(1H-pyrazol-5-yl)pyrrolidin-3-yl)carbamoyl)-5-oxodecahydropyrrolo[1,2-a]azocin-6-yl)carbamoyl)benzo[b]thiophen-5-yl)fluoromethyl)phosphonic acid] | 0.3 to 3 µM | 1 to 10 µM
O=C(N[C@H]1CCC[C@H]2CC[C@@H](C(=O)N3CC(c4cc5cccnc5cc4F)C3)N2C1=O)c1cc2cc(C(F)P(=O)(O)O)ccc2s1 (stereo partly drawn) [Compound 560, (fluoro(2-(((3S,6S,9aS)-3-(3-(7-fluoroquinolin-6-yl)azetidine-1-carbonyl)-5-oxooctahydro-1H-pyrrolo[1,2-a]azepin-6-yl)carbamoyl)benzo[b]thiophen-5-yl)methyl)phosphonic acid] | 3 to 30 µM | 1 to 10 µM
O=C(N[C@H]1CCC[C@H]2CC[C@@H](C(=O)N3CC(c4cccnc4C(F)F)C3)N2C1=O)c1cc2cc(CP(=O)(O)O)ccc2s1 [Compound 562, ((2-(((3S,6S,9aS)-3-(3-(2-(difluoromethyl)pyridin-3-yl)azetidine-1-carbonyl)-5-oxooctahydro-1H-pyrrolo[1,2-a]azepin-6-yl)carbamoyl)benzo[b]thiophen-5-yl)methyl)phosphonic acid] | 3 to 30 µM | 0.1 to 1 µM
O=C(N[C@H]1CCCC[C@H]2CC[C@@H](C(=O)N3CCC(c4ccccc4F)C3)N2C1=O)c1cc2cc(C(F)P(=O)(O)O)ccc2s1 (stereo partly drawn) [Compound 563, (fluoro(2-(((3S,6S,10aS)-3-(3-(2-fluorophenyl)pyrrolidine-1-carbonyl)-5-oxodecahydropyrrolo[1,2-a]azocin-6-yl)carbamoyl)benzo[b]thiophen-5-yl)methyl)phosphonic acid] | 0.3 to 3 µM | 1 to 10 µM
O=C(N[C@H]1CCCC[C@H]2CC[C@@H](C(=O)N3CCC(c4cccnc4)CC3)N2C1=O)c1cc2cc(C(F)P(=O)(O)O)ccc2s1 (stereo partly drawn) [Compound 564, (fluoro(2-(((3S,6S,10aS)-5-oxo-3-(4-(pyridin-3-yl)piperidine-1-carbonyl)decahydropyrrolo[1,2-a]azocin-6-yl)carbamoyl)benzo[b]thiophen-5-yl)methyl)phosphonic acid] | 3 to 30 µM | 0.1 to 1 µM
O=C(N[C@H]1CCC[C@H]2CC[C@@H](C(=O)N3CC(c4ccccc4F)C3)N2C1=O)c1cc2cc(C(F)P(=O)(O)O)ccc2s1 (stereo partly drawn) [Compound 565, (fluoro(2-(((3S,6S,9aS)-3-(3-(2-fluorophenyl)azetidine-1-carbonyl)-5-oxooctahydro-1H-pyrrolo[1,2-a]azepin-6-yl)carbamoyl)benzo[b]thiophen-5-yl)methyl)phosphonic acid] | 3 to 30 µM | 0.1 to 1 µM
O=C(N[C@H]1CCCC[C@H]2CC[C@@H](C(=O)N3CC(c4cnccc4F)C3)N2C1=O)c1cc2cc(CP(=O)(O)O)ccc2s1 [Compound 566, ((2-(((3S,6S,10aS)-3-(3-(4-fluoropyridin-3-yl)azetidine-1-carbonyl)-5-oxodecahydropyrrolo[1,2-a]azocin-6-yl)carbamoyl)benzo[b]thiophen-5-yl)methyl)phosphonic acid] | 3 to 30 µM | < 0.1 µM
COCC(=O)NC1(c2ccccn2)CN(C(=O)[C@@H]2CC[C@@H]3CCCC[C@H](NC(=O)c4cc5cc(C(F)P(=O)(O)O)ccc5s4)C(=O)N32)C1 (stereo partly drawn) [Compound 567, (fluoro(2-(((3S,6S,10aS)-3-(3-(2-methoxyacetamido)-3-(pyridin-2-yl)azetidine-1-carbonyl)-5-oxodecahydropyrrolo[1,2-a]azocin-6-yl)carbamoyl)benzo[b]thiophen-5-yl)methyl)phosphonic acid] | 3 to 30 µM | 0.1 to 1 µM
COCCNC1(c2ccccn2)CN(C(=O)[C@@H]2CC[C@@H]3CCCC[C@H](NC(=O)c4cc5cc(C(F)P(=O)(O)O)ccc5s4)C(=O)N32)C1 (stereo partly drawn) [Compound 568, (fluoro(2-(((3S,6S,10aS)-3-(3-((2-methoxyethyl)amino)-3-(pyridin-2-yl)azetidine-1-carbonyl)-5-oxodecahydropyrrolo[1,2-a]azocin-6-yl)carbamoyl)benzo[b]thiophen-5-yl)methyl)phosphonic acid] | 3 to 30 µM | < 0.1 µM
Cn1ccc(N2C(=O)N(C(=O)[C@@H]3CC[C@@H]4CCCC[C@H](NC(=O)c5cc6cc(C(F)P(=O)(O)O)ccc6s5)C(=O)N43)C3(CC3)C2=O)cc1=O (stereo partly drawn) [Compound 569, (fluoro(2-(((3S,6S,10aS)-3-(6-(1-methyl-2-oxo-1,2-dihydropyridin-4-y1)-5,7-dioxo-4,6-diazaspiro[2.4]heptane-4-carbonyl)-5-oxodecahydropyrrolo[1,2-a]azocin-6-yl)carbamoyl)benzo[b]thiophen-5-yl)methyl)phosphonic acid] | 0.3 to 3 µM | 1 to 10 µM
O=C(N[C@H]1CCCC[C@H]2CC[C@@H](C(=O)N3CC(c4ccccc4)CC34CC4)N2C1=O)c1ccc2cnc(CP(=O)(O)O)cc2c1 (stereo partly drawn) [Compound 570, ((6-(((3S,6S,10aS)-5-oxo-3-(6-phenyl-4-azaspiro[2.4]heptane-4-carbonyl)decahydropyrrolo[1,2-a]azocin-6-yl)carbamoyl)isoquinolin-3-yl)methyl)phosphonic acid] | 3 to 30 µM | 1 to 10 µM
O=C(N[C@H]1CCCC[C@H]2CC[C@@H](C(=O)N3CC(c4ccccc4)CC34CC4)N2C1=O)c1ccc2ccc(CP(=O)(O)O)nc2c1 (stereo partly drawn) [Compound 571, ((7-(((3S,6S,10aS)-5-oxo-3-(6-phenyl-4-azaspiro[2.4]heptane-4-carbonyl)decahydropyrrolo[1,2-a]azocin-6-yl)carbamoyl)quinolin-2-yl)methyl)phosphonic acid] | 3 to 30 µM | 1 to 10 µM
